pEC50: −log10 of the molar value. Read-outs that look alike come from different tables or passages of the source.
Assays:
Assay type in all cases: cell-based
[1] = molecular target: T1, GIP-R (Homo sapiens, UniProt P48546); experiment: HitHunter cAMP assay (GIP-R); conditions: cAMP; for Emax: read-out: (Emax) GIP-R
T1 sequence (P48546 22-466): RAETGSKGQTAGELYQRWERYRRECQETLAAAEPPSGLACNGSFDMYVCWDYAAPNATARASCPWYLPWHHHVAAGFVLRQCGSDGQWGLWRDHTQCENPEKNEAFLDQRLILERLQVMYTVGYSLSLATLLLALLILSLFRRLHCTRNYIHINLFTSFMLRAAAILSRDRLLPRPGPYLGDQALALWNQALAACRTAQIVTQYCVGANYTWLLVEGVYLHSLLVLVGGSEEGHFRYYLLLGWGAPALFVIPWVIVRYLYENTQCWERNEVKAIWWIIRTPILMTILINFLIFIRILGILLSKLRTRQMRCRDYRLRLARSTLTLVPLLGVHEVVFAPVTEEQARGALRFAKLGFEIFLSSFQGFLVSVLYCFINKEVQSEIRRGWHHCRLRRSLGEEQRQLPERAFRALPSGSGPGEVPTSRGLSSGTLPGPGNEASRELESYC
How it was run: (§1)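 Duplicate 22-point, 2-fold agonist titrations applied to receptor-expressing suspension cells in IBMX-containing HBSS; 30 min RT stimulation. Read: luminescent cAMP immunocompetition after O/N dark incubation.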

[2] = molecular target: T2, GLP-1R (Homo sapiens, UniProt P43220); experiment: PathHunter β-arrestin assay
T2 sequence (P43220 24-463): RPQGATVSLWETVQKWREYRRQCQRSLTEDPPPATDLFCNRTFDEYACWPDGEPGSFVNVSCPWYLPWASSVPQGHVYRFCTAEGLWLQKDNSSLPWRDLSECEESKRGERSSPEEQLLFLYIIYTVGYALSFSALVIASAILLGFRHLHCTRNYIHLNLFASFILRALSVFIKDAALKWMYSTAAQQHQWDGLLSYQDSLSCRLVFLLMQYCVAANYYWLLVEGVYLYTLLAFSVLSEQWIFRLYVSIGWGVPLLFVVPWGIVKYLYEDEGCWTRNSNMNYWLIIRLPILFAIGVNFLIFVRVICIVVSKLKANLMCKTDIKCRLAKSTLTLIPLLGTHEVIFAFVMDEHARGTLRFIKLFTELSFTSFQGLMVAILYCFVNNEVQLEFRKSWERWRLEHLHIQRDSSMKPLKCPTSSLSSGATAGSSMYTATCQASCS
How it was run: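 Following a 90 min agonist exposure at 37 °C in 0.2% BSA medium, β-arrestin coupling was detected by chemiluminescence after 3 h at room temperature.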

[3] = molecular target: T2, GLP-1R; experiment: HitHunter cAMP assay (GLP-1R); conditions: cAMP; for Emax: read-out: (Emax) GLP-1R
How it was run: as §1

SMILES | EC50 ([1]; EC50 GIP-R/nM, Table 3) | EC50 ([1]; EC50 GIP-R/nM, Table 3A) | Emax ([1]; Table 3) | Emax ([1]; Table 3A) | pEC50 [2] | EC50 ([3]; EC50 GLP-1R/nM, Table 3) | EC50 ([3]; EC50 GLP-1R/nM, Table 3A) | Emax ([3]; Table 3) | Emax ([3]; Table 3A) | EC50 ([1]; Table 3, read-out: EC50 GIP-R/nM) | EC50 ([1]; Table 3A, read-out: EC50 GIP-R/nM) | pEC50 ([2]; PathHunter β-arrestin assay, read-out: β-arrestin activity EC50) | EC50 ([3]; Table 3, read-out: EC50 GLP-1R/nM) | EC50 ([3]; Table 3A, read-out: EC50 GLP-1R/nM)
CC[C@H](C)[C@H](NC(=O)[C@H](CO)NC(=O)[C@H](Cc1ccc(O)cc1)NC(=O)[C@H](CC(=O)O)NC(=O)[C@H](CO)NC(=O)[C@@H](NC(=O)[C@H](Cc1ccccc1)NC(=O)[C@@H](NC(=O)CNC(=O)[C@H](CCC(=O)O)NC(=O)CSCC(=O)NCCn1ncc2ccccc2c1=O)[C@@H](C)O)[C@@H](C)O)C(=O)N[C@@H](Cc1ccc(O)cc1)C(=O)N[C@@H](CC(C)C)C(=O)N[C@@H](CC(=O)O)C(=O)N[C@@H](CCCCN)C(=O)N[C@@H](CCC(N)=O)C(=O)N[C@@H](C)C(=O)N[C@@H](C)C(=O)NC(C)(C)C(=O)N[C@@H](CCC(=O)O)C(=O)N[C@@H](Cc1ccccc1)C(=O)N[C@H](C(=O)N[C@@H](CC(N)=O)C(=O)N[C@@H](Cc1c[nH]c2ccccc12)C(=O)N[C@@H](CC(C)C)C(=O)N[C@@H](CC(C)C)C(=O)N[C@@H](C)C(=O)NCC(=O)NCC(=O)N1CCC[C@H]1C(=O)N[C@@H](CO)C(=O)N[C@@H](CO)C(=O)NCC(=O)N[C@@H](C)C(=O)N1CCC[C@H]1C(=O)N1CCC[C@H]1C(=O)N1CCC[C@H]1C(=O)N[C@@H](CO)C(=O)N[C@@H](CCCCN)C(N)=O)C(C)C [Compound 136] | 0.1 to 1 nM | 0.1 to 1 nM | 105% | 105% | < 6.00 | 10 to 100 nM | 10 to 100 nM | 91 to 94% | 91 to 94% |  |  |  |  | 
CC[C@H](C)[C@H](NC(=O)[C@H](CO)NC(=O)[C@H](Cc1ccc(O)cc1)NC(=O)[C@H](CC(=O)O)NC(=O)[C@H](CO)NC(=O)[C@@H](NC(=O)[C@H](Cc1ccccc1)NC(=O)[C@@H](NC(=O)CNC(=O)[C@H](CCC(=O)O)NC(=O)CSCC(=O)NCCn1c(C)cc(C)nc1=O)[C@@H](C)O)[C@@H](C)O)C(=O)N[C@@H](Cc1ccc(O)cc1)C(=O)N[C@@H](CC(C)C)C(=O)N[C@@H](CC(=O)O)C(=O)N[C@@H](CCCCN)C(=O)N[C@@H](CCC(N)=O)C(=O)N[C@@H](C)C(=O)N[C@@H](C)C(=O)NC(C)(C)C(=O)N[C@@H](CCC(=O)O)C(=O)N[C@@H](Cc1ccccc1)C(=O)N[C@H](C(=O)N[C@@H](CC(N)=O)C(=O)N[C@@H](Cc1c[nH]c2ccccc12)C(=O)N[C@@H](CC(C)C)C(=O)N[C@@H](CC(C)C)C(=O)N[C@@H](C)C(=O)NCC(=O)NCC(=O)N1CCC[C@H]1C(=O)N[C@@H](CO)C(=O)N[C@@H](CO)C(=O)NCC(=O)N[C@@H](C)C(=O)N1CCC[C@H]1C(=O)N1CCC[C@H]1C(=O)N1CCC[C@H]1C(=O)N[C@@H](CO)C(=O)N[C@@H](CCCCN)C(N)=O)C(C)C [Compound 137] | 10 to 100 nM |  | 8% |  | < 6.00 | 1 to 10 nM | 1 to 10 nM | 103% | 103% |  |  |  |  | 
CC[C@H](C)[C@H](NC(=O)[C@H](CO)NC(=O)[C@H](Cc1ccc(O)cc1)NC(=O)[C@H](CC(=O)O)NC(=O)[C@H](CO)NC(=O)[C@@H](NC(=O)[C@H](Cc1ccccc1)NC(=O)[C@@H](NC(=O)CNC(=O)[C@H](CCC(=O)O)NC(=O)CSCC(=O)NCCN1C(=O)CCCC1=O)[C@@H](C)O)[C@@H](C)O)C(=O)N[C@@H](Cc1ccc(O)cc1)C(=O)N[C@@H](CC(C)C)C(=O)N[C@@H](CC(=O)O)C(=O)N[C@@H](CCCCN)C(=O)N[C@@H](CCC(N)=O)C(=O)N[C@@H](C)C(=O)N[C@@H](C)C(=O)NC(C)(C)C(=O)N[C@@H](CCC(=O)O)C(=O)N[C@@H](Cc1ccccc1)C(=O)N[C@H](C(=O)N[C@@H](CC(N)=O)C(=O)N[C@@H](Cc1c[nH]c2ccccc12)C(=O)N[C@@H](CC(C)C)C(=O)N[C@@H](CC(C)C)C(=O)N[C@@H](C)C(=O)NCC(=O)NCC(=O)N1CCC[C@H]1C(=O)N[C@@H](CO)C(=O)N[C@@H](CO)C(=O)NCC(=O)N[C@@H](C)C(=O)N1CCC[C@H]1C(=O)N1CCC[C@H]1C(=O)N1CCC[C@H]1C(=O)N[C@@H](CO)C(=O)N[C@@H](CCCCN)C(N)=O)C(C)C [Compound 138] | 1 to 10 nM | 1 to 10 nM | 81% | 81% | < 6.00 | 1 to 10 nM | 1 to 10 nM | 87% | 87% |  |  |  |  | 
CC[C@H](C)[C@H](NC(=O)[C@H](CO)NC(=O)[C@H](Cc1ccc(O)cc1)NC(=O)[C@H](CC(=O)O)NC(=O)[C@H](CO)NC(=O)[C@@H](NC(=O)[C@H](Cc1ccccc1)NC(=O)[C@@H](NC(=O)CNC(=O)[C@H](CCC(=O)O)NC(=O)CSCC(=O)NCCn1ccccc1=O)[C@@H](C)O)[C@@H](C)O)C(=O)N[C@@H](Cc1ccc(O)cc1)C(=O)N[C@@H](CC(C)C)C(=O)N[C@@H](CC(=O)O)C(=O)N[C@@H](CCCCN)C(=O)N[C@@H](CCC(N)=O)C(=O)N[C@@H](C)C(=O)N[C@@H](C)C(=O)NC(C)(C)C(=O)N[C@@H](CCC(=O)O)C(=O)N[C@@H](Cc1ccccc1)C(=O)N[C@H](C(=O)N[C@@H](CC(N)=O)C(=O)N[C@@H](Cc1c[nH]c2ccccc12)C(=O)N[C@@H](CC(C)C)C(=O)N[C@@H](CC(C)C)C(=O)N[C@@H](C)C(=O)NCC(=O)NCC(=O)N1CCC[C@H]1C(=O)N[C@@H](CO)C(=O)N[C@@H](CO)C(=O)NCC(=O)N[C@@H](C)C(=O)N1CCC[C@H]1C(=O)N1CCC[C@H]1C(=O)N1CCC[C@H]1C(=O)N[C@@H](CO)C(=O)N[C@@H](CCCCN)C(N)=O)C(C)C [Compound 139] |  |  | 79% | 79% |  |  |  | 102% | 102% | 1 to 10 nM | 1 to 10 nM | < 6.00 | 0.1 to 1 nM | 0.1 to 1 nM
CC[C@H](C)[C@H](NC(=O)[C@H](CO)NC(=O)[C@H](Cc1ccc(O)cc1)NC(=O)[C@H](CC(=O)O)NC(=O)[C@H](CO)NC(=O)[C@@H](NC(=O)[C@H](Cc1ccccc1)NC(=O)[C@@H](NC(=O)CNC(=O)[C@H](CCC(=O)O)NC(=O)C(C)(C)C(=O)NCCN1C(=O)c2ccccc2C1=O)[C@@H](C)O)[C@@H](C)O)C(=O)N[C@@H](Cc1ccc(O)cc1)C(=O)N[C@@H](CC(C)C)C(=O)N[C@@H](CC(=O)O)C(=O)N[C@@H](CCCCN)C(=O)N[C@@H](CCC(N)=O)C(=O)N[C@@H](C)C(=O)N[C@@H](C)C(=O)NC(C)(C)C(=O)N[C@@H](CCC(=O)O)C(=O)N[C@@H](Cc1ccccc1)C(=O)N[C@H](C(=O)N[C@@H](CC(N)=O)C(=O)N[C@@H](Cc1c[nH]c2ccccc12)C(=O)N[C@@H](CC(C)C)C(=O)N[C@@H](CC(C)C)C(=O)N[C@@H](C)C(=O)NCC(=O)NCC(=O)N1CCC[C@H]1C(=O)N[C@@H](CO)C(=O)N[C@@H](CO)C(=O)NCC(=O)N[C@@H](C)C(=O)N1CCC[C@H]1C(=O)N1CCC[C@H]1C(=O)N1CCC[C@H]1C(=O)N[C@@H](CO)C(=O)N[C@@H](CCCCN)C(N)=O)C(C)C [Compound 140] | 1 to 10 nM | 1 to 10 nM | 63% | 63% | < 6.00 | < 0.1 nM | < 0.1 nM | 107% | 107% |  |  |  |  | 
CC[C@H](C)[C@H](NC(=O)[C@H](CO)NC(=O)[C@H](Cc1ccc(O)cc1)NC(=O)[C@H](CC(=O)O)NC(=O)[C@H](CO)NC(=O)[C@@H](NC(=O)[C@H](Cc1ccccc1)NC(=O)[C@@H](NC(=O)CNC(=O)[C@H](CCC(=O)O)NC(=O)C(C)(C)C(=O)NCCCCN1C(=O)c2ccccc2C1=O)[C@@H](C)O)[C@@H](C)O)C(=O)N[C@@H](Cc1ccc(O)cc1)C(=O)N[C@@H](CC(C)C)C(=O)N[C@@H](CC(=O)O)C(=O)N[C@@H](CCCCN)C(=O)N[C@@H](CCC(N)=O)C(=O)N[C@@H](C)C(=O)N[C@@H](C)C(=O)NC(C)(C)C(=O)N[C@@H](CCC(=O)O)C(=O)N[C@@H](Cc1ccccc1)C(=O)N[C@H](C(=O)N[C@@H](CC(N)=O)C(=O)N[C@@H](Cc1c[nH]c2ccccc12)C(=O)N[C@@H](CC(C)C)C(=O)N[C@@H](CC(C)C)C(=O)N[C@@H](C)C(=O)NCC(=O)NCC(=O)N1CCC[C@H]1C(=O)N[C@@H](CO)C(=O)N[C@@H](CO)C(=O)NCC(=O)N[C@@H](C)C(=O)N1CCC[C@H]1C(=O)N1CCC[C@H]1C(=O)N1CCC[C@H]1C(=O)N[C@@H](CO)C(=O)N[C@@H](CCCCN)C(N)=O)C(C)C [Compound 141] | 10 to 100 nM | 10 to 100 nM | 46 to 50% | 46 to 50% | < 6.00 | 1 to 10 nM | 1 to 10 nM | 98 to 100% | 98 to 100% |  |  |  |  | 
